For eight molecules, pIC50 results are on record in the supplement of paper PMC12076712.

One experiment deals with MET (UniProt P08581). In words: pIC50, kinobeads binding competition. To be noted: cell material: Lysate mix. In outline:
(§1)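 Jurkat cells were exposed alive to nine compound concentrations (top 30 μM, 1:4 steps) or vehicle for 60 min at 37 °C and then lysed. In a second format, nine concentrations (top 30 μM, 1:5 steps) were incubated for 60 min at 4 °C with Jurkat lysate or with a 1:1:1:1 lysate mix of HEK293, K-562, HepG2 and placenta. Proteins captured on Kinobeads were digested and quantified by TMT10 LC-MS/MS. pIC50 values were derived from logistic dose-response fits (R drc package) of fold changes relative to vehicle, in biological duplicates.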

A further experiment concerns the target UniProt O95747. The experiment is described as follows: pIC50, kinobeads binding competition. Put shortly:
as §1

A further experiment addresses T1, KSR1 (UniProt Q8IVT5).
T1 sequence (whole entry): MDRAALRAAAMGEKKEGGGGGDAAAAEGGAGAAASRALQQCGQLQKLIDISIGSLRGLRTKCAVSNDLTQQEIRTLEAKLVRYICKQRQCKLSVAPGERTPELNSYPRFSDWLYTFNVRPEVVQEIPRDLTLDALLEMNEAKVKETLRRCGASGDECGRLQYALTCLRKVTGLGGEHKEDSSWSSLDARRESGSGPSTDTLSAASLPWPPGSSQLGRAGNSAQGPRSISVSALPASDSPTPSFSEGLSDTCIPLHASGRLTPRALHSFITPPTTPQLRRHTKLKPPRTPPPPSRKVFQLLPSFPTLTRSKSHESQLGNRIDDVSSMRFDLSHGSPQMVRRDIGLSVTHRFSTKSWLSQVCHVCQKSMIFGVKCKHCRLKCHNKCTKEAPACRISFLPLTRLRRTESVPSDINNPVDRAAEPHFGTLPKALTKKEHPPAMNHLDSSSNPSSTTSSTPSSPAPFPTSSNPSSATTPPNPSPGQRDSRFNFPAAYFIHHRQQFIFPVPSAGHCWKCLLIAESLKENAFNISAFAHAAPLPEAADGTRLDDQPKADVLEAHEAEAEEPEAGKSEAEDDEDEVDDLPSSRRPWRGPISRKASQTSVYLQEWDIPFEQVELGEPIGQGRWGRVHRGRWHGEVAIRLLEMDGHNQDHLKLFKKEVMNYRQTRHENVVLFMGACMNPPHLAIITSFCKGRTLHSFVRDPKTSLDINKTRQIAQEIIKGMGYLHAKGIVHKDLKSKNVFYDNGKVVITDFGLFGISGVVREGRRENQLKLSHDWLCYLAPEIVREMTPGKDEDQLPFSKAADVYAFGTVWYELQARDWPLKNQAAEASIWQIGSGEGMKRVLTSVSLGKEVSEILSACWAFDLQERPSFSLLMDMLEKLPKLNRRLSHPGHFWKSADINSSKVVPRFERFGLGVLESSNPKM
The experiment is described as follows: pIC50, kinobeads binding competition. Put shortly: as §1

For the next experiment, the target named is UniProt Q16512. The experiment is described as follows: pIC50, kinobeads binding competition. Put shortly: as §1
Sequence of UniProt Q16512 (Q16512 whole entry, looked up): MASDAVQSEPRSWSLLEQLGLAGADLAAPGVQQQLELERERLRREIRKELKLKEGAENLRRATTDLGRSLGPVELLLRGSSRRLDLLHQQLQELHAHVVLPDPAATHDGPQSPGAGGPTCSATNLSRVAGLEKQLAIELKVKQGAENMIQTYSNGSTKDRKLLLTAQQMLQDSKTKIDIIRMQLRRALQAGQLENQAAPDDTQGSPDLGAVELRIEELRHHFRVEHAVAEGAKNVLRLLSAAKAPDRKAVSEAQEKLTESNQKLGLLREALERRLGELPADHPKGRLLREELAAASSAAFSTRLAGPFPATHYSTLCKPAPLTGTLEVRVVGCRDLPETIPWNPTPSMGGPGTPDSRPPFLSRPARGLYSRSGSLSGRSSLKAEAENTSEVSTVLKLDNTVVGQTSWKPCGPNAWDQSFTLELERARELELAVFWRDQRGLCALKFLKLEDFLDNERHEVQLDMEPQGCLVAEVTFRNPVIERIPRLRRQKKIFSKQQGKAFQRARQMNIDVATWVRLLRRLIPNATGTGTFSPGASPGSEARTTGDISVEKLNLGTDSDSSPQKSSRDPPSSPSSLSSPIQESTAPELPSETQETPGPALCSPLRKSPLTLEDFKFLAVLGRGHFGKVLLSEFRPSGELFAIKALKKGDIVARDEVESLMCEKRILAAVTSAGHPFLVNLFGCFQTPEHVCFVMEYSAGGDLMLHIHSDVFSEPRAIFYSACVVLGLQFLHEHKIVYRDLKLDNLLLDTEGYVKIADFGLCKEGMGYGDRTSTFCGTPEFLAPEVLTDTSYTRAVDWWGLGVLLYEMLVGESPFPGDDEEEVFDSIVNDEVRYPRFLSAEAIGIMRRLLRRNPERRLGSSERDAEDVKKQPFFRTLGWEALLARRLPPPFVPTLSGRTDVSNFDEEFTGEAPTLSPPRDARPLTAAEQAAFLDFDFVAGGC
A further experiment addresses PAK2 (UniProt Q13177). The experiment is described as follows: pIC50, kinobeads binding competition. Put shortly: as §1
The target in the next experiment is Fes (UniProt P07332). The experiment is described as follows: pIC50, kinobeads binding competition. To be noted: cell material: Lysate mix. In outline: as §1
Sequence of Fes (P07332 whole entry): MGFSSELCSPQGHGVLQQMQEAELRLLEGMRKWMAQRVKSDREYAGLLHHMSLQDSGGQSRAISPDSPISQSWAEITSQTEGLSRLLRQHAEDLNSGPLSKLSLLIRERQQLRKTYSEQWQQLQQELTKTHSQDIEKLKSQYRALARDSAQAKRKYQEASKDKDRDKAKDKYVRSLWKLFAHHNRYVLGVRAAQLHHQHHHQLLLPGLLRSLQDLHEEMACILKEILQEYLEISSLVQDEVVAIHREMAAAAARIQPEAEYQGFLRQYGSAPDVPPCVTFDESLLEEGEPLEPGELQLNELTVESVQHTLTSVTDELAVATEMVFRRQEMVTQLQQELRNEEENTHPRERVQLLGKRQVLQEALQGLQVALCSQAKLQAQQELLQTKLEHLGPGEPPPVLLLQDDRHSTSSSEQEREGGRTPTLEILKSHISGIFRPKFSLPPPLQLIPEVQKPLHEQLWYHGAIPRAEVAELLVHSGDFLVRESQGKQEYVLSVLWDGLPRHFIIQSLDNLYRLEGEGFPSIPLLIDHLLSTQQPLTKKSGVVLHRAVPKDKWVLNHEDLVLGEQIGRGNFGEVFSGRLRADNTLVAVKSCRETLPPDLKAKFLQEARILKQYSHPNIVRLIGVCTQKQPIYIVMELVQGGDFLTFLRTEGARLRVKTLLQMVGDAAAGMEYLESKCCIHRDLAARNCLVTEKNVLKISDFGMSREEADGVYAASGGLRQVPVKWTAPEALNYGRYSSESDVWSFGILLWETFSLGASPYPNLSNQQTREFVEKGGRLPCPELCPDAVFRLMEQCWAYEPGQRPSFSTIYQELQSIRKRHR
The next experiment deals with PRKACB (UniProt P22694). The experiment is described as follows: pIC50, kinobeads binding competition. Put shortly: as §1
The target in a further experiment is UniProt P45984. The experiment is described as follows: pIC50, kinobeads binding competition. In outline: as §1
Sequence of UniProt P45984 (P45984 whole entry, looked up): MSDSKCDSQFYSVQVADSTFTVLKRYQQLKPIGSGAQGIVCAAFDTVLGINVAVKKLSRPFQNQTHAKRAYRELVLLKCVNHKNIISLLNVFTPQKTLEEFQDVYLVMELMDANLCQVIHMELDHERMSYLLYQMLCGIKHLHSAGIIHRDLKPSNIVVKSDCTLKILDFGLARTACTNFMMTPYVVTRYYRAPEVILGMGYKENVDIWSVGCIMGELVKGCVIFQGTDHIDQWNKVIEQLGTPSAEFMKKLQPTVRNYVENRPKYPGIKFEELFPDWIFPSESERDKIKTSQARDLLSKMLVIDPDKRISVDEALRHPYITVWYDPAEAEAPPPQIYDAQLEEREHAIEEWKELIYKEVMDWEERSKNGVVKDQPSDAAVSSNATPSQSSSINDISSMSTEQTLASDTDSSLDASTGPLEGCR
The next experiment addresses KIT (UniProt P10721). The experiment is described as follows: pIC50, kinobeads binding competition. The conditions noted are these: cell material: Lysate mix. In outline: as §1
The next experiment deals with UniProt P57059. In words: pIC50, kinobeads binding competition. To be noted: cell material: Lysate mix. In outline:
as §1

A further experiment has as its target LIMK2 (UniProt P53671). The experiment is described as follows: pIC50, competition of probe 3 labelling in live cells. To be noted: cell material: Jurkat cells.
A further experiment has as its target RPS6KA4 (UniProt O75676). The experiment is described as above. To be noted: cell material: Jurkat cells.
The target in another experiment is GSTM1 (UniProt P09488). The description is as above. To be noted: cell material: Jurkat cells.
The next experiment deals with STK35 (UniProt Q8TDR2). Described as above. To be noted: cell material: Jurkat cells.
In another experiment the target is UniProt Q14289. The experiment is described as above. The conditions noted are these: cell material: Jurkat cells.
Another experiment has as its target T2, CASK (UniProt O14936).
T2 sequence (whole entry): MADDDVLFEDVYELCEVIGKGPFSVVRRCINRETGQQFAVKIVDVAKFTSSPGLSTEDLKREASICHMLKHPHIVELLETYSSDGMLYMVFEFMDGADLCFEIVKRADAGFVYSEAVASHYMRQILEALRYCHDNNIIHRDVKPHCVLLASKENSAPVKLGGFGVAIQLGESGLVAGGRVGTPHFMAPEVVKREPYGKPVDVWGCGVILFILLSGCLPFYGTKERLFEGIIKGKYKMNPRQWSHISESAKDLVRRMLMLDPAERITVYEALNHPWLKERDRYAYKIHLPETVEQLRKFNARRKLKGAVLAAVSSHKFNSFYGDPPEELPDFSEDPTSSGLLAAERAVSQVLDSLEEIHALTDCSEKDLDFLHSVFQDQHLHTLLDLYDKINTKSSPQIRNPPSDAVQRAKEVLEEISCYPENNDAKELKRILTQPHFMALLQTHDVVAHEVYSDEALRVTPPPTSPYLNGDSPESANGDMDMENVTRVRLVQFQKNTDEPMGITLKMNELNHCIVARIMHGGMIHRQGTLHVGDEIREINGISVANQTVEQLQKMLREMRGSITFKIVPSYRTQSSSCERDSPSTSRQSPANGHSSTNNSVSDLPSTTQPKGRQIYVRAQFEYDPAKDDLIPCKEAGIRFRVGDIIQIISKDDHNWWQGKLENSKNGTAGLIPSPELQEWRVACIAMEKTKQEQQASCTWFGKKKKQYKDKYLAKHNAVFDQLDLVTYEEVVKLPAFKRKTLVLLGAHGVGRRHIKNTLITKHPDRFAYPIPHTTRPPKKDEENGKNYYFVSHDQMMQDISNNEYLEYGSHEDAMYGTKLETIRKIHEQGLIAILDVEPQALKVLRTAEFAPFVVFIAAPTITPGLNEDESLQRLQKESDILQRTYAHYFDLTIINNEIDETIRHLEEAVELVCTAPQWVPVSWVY
In words: pIC50, kinobeads binding competition. To be noted: cell material: Lysate mix. Put shortly: as §1

Some results are limits rather than exact numbers.

Sequence of UniProt P57059 (P57059 whole entry): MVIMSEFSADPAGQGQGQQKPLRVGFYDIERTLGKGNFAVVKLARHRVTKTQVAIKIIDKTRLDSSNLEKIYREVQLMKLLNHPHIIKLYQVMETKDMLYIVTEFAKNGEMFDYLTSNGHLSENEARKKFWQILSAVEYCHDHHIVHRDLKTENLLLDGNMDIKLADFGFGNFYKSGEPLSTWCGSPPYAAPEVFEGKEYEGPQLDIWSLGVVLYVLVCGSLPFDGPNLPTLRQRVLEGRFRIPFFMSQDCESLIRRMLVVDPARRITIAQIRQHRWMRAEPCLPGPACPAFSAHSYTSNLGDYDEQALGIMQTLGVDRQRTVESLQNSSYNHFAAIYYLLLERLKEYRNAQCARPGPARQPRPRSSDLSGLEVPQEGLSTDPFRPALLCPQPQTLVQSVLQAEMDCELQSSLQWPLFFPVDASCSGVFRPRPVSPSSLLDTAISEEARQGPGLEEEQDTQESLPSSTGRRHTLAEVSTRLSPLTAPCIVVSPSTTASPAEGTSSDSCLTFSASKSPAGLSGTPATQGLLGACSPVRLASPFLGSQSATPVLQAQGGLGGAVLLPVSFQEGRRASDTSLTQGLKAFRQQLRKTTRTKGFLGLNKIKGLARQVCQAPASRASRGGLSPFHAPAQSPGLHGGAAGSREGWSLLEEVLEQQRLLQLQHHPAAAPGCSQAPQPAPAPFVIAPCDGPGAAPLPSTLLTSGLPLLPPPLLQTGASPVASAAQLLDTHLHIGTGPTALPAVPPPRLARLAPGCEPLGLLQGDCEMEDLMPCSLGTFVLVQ
Sequence of MET (P08581 whole entry): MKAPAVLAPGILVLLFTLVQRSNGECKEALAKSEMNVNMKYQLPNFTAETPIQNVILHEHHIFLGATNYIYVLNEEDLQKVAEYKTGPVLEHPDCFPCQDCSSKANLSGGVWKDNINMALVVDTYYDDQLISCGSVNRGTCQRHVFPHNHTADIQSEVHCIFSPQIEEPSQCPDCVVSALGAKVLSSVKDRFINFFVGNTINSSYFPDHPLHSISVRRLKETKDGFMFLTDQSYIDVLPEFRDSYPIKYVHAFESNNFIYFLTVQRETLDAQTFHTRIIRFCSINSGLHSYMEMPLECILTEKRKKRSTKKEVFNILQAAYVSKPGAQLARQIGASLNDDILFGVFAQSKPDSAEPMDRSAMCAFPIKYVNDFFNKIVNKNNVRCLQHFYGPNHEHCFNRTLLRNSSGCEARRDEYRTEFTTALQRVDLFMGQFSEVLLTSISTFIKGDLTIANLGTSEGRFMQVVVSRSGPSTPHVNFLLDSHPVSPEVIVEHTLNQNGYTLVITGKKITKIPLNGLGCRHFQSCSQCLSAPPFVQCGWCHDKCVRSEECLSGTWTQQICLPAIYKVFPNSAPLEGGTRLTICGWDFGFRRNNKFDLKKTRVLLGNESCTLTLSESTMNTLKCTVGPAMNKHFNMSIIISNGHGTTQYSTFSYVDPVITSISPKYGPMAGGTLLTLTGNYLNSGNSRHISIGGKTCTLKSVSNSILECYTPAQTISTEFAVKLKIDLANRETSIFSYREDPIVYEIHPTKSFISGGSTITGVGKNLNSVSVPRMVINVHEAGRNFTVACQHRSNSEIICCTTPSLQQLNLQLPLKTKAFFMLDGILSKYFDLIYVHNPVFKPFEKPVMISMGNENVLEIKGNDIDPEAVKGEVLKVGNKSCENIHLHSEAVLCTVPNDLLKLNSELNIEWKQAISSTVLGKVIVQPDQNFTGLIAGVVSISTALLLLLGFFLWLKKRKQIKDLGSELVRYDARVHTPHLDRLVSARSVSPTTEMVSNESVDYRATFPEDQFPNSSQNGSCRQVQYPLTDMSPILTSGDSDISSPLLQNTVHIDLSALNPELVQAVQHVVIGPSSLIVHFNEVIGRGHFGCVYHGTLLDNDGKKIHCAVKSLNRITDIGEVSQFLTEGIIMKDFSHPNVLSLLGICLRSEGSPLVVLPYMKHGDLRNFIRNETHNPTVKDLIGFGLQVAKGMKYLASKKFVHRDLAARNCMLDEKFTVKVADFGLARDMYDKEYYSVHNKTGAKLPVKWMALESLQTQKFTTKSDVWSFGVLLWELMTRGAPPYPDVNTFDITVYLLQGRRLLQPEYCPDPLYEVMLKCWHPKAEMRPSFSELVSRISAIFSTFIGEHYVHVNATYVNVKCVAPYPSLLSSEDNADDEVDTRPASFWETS
Sequence of UniProt O95747 (O95747 whole entry, looked up): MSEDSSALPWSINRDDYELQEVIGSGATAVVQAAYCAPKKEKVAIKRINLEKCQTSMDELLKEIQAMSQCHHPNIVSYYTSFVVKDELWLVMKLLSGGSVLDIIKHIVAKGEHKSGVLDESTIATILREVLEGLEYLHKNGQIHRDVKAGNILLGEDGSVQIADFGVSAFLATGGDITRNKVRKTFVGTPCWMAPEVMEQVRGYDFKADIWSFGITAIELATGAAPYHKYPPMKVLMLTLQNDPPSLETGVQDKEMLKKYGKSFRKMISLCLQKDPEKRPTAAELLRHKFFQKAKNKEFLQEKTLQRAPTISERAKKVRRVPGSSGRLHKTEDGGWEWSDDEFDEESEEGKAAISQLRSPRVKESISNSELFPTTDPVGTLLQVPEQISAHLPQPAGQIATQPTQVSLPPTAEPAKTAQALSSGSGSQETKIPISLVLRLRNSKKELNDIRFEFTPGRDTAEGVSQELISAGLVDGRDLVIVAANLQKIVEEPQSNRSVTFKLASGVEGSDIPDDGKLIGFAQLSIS

For `Cc1cc(Nc2cc(C(=O)NCCNC(=O)OC3CC/C=C/CCC3)nc(N3CCN(Cc4ccc(S(=O)(=O)F)cc4)CC3)n2)n[nH]1` (configuration not stated), the pIC50 on MET, on UniProt O95747 (cell material: Lysate mix), at KSR1 (cell material: Lysate mix), at UniProt Q16512 (cell material: Lysate mix), at PAK2 (cell material: Lysate mix) and at Fes was less than 4.52 throughout. The molecule also registered a pIC50 on PRKACB (cell material: Lysate mix) of less than 4.52.

For the molecule `C#CCNC(=O)c1cc(Nc2cc(C3CC3)[nH]n2)nc(N2CCN(Cc3ccc(S(=O)(=O)F)cc3)CC2)n1`, the pIC50 is 6.16 on UniProt O95747 (cell material: Jurkat cells); 5.4 on UniProt O95747 (cell material: Jurkat lysate); 5.54 at UniProt O95747 (cell material: Lysate mix); 5.36 on UniProt Q16512 (cell material: Jurkat cells); less than 4.52 at UniProt Q16512 (cell material: Jurkat lysate); less than 4.52 on UniProt Q16512 (cell material: Lysate mix). Further, the pIC50 on PAK2 (cell material: Jurkat cells) is less than 4.52; at PAK2 (cell material: Jurkat lysate), less than 4.52; at Fes, 5.24; on UniProt P45984 (cell material: Jurkat cells) it was 5.92; on UniProt P45984 (cell material: Jurkat lysate), 5.22; on UniProt P45984 (cell material: Lysate mix) it was 5.72. Moreover, the pIC50 at PRKACB (cell material: Jurkat lysate), on KIT and at UniProt P57059 was less than 4.52 in each case.

For `CCc1cnn2c(NCc3ccc[n+]([O-])c3)cc(N3CCCC[C@H]3CCO)nc12` [dinaciclib], the negative logarithm of the IC50 (pIC50) at LIMK2, at RPS6KA4, on GSTM1, at STK35 and on UniProt Q14289 was less than 4.52 each time.

Take `CCNC(=O)c1cc(Nc2cc(C3CC3)[nH]n2)nc(N2CCN(Cc3ccc(S(=O)(=O)F)cc3)CC2)n1`: the pIC50 was 4.92 on MET; 5.24 at UniProt O95747 (cell material: Lysate mix); less than 4.52 on CASK; 5.62 on UniProt P45984 (cell material: Lysate mix); less than 4.52 at KIT; less than 4.52 at UniProt P57059.

Regarding `C#CCNC(=O)c1cc(Nc2cc(C)[nH]n2)nc(N2CCN(Cc3ccc(S(=O)(=O)F)cc3)CC2)n1`, the pIC50 at MET is less than 4.52; on KSR1 (cell material: Lysate mix), less than 4.52; at UniProt Q16512 (cell material: Lysate mix) it was less than 4.52; at Fes it was less than 4.52; on CASK, less than 4.52; on UniProt P45984 (cell material: Lysate mix), 5.34. Also, the pIC50 on KIT is less than 4.52.

Take `CC#CC(=O)Nc1ccc2ncnc(Nc3cccc(Br)c3)c2c1` [EKI-785]: the pIC50 at LIMK2 is less than 4.52; at RPS6KA4, less than 4.52; on GSTM1, less than 4.52; at STK35, less than 4.52; at UniProt Q14289, 4.62.

As for `O=C(NCCNC(=O)c1cc(Nc2cc(C3CC3)[nH]n2)nc(N2CCN(Cc3ccc(S(=O)(=O)F)cc3)CC2)n1)OC1CC/C=C/CCC1` (configuration not stated), the pIC50 on MET is less than 4.52; on UniProt O95747 (cell material: Jurkat cells) it was 5.3; at UniProt O95747 (cell material: Jurkat lysate), less than 4.52; on UniProt O95747 (cell material: Lysate mix), less than 4.52; on KSR1 (cell material: Jurkat cells), less than 4.52; at KSR1 (cell material: Jurkat lysate), less than 4.52. Besides, the pIC50 on KSR1 (cell material: Lysate mix), at UniProt Q16512 (cell material: Jurkat lysate), at UniProt Q16512 (cell material: Lysate mix), at PAK2 (cell material: Jurkat cells), on Fes and on CASK was less than 4.52 throughout. The pIC50 was 5.7 at UniProt P45984 (cell material: Jurkat cells); less than 4.52 at UniProt P45984 (cell material: Jurkat lysate); less than 4.52 on PRKACB (cell material: Jurkat cells); less than 4.52 on PRKACB (cell material: Jurkat lysate); less than 4.52 at UniProt P57059.

Consider `CCNC(=O)c1cc(Nc2cc(C)[nH]n2)nc(N2CCN(Cc3ccc(S(=O)(=O)F)cc3)CC2)n1`, for which the pIC50 at MET, on UniProt O95747 (cell material: Lysate mix), on KSR1 (cell material: Lysate mix), at UniProt Q16512 (cell material: Lysate mix), at Fes and on CASK was less than 4.52 each time. Further, the pIC50 was 5.2 at UniProt P45984 (cell material: Lysate mix), less than 4.52 at PRKACB (cell material: Lysate mix), less than 4.52 on KIT and less than 4.52 at UniProt P57059.
